Measurements published in patent US20240182457A1, “OXADIAZOLE-SUBSTITUTED SPIROCYCLIC COMPOUND AND APPLICATION THEREOF” (HELIOEAST PHARMACEUTICAL CO., LTD., priority 2021, published 2024).

Target: T1, S1PR1 (Homo sapiens, UniProt P21453)
T1 construct: expressed in transfected cells
Assay: In vitro agonist activity on S1PR1 (PathHunter cell line, chemiluminescence)
Type: cell-based
Description: Test example 1: Evaluating the in vitro agonist activity of the compound of the present disclosure on S1PR1
Experimental purpose: To assess the agonist activity of the compound on S1PR1
I. Cell Treatment • 1. The PathHunter cell line was thawed according to standard procedures. • 2. The cells were seeded in a 384-well plate with a volume of 20 μL, and incubated at 37° C. for an appropriate duration.
II. Agonist • 1. For the agonist evaluation, the cells were co-cultured with the test samples to induce a reaction. • 2. The test stock solution was diluted 5-fold using the buffer. • 3. 5 μL of the 5-fold diluted solution was added to the cells, and incubated at 37° C. for 90 to 180 minutes. The vehicle concentration was maintained at 1%.
III. Signal Detection • 1. Either 12.5 μL or 15 μL of the PathHunter detection reagent (at a 50% v/v ratio) was added each time, followed by a 1-hour incubation at room temperature to allow for detection signal generation. • 2. Chemiluminescence signal detection was conducted using a PerkinElmer Envision™ microplate reader.
IV. Data Analysis • 1. The activity of the compound was analyzed using the CBIS suite for data analysis (ChemInnovation, CA). • 2. Formula for calculation:
% Activity=100%× (Average sample RLU—Average vehicle RLU)/(Average maximum control ligand RLU—Average vehicle RLU)

T1 sequence (P21453 whole entry): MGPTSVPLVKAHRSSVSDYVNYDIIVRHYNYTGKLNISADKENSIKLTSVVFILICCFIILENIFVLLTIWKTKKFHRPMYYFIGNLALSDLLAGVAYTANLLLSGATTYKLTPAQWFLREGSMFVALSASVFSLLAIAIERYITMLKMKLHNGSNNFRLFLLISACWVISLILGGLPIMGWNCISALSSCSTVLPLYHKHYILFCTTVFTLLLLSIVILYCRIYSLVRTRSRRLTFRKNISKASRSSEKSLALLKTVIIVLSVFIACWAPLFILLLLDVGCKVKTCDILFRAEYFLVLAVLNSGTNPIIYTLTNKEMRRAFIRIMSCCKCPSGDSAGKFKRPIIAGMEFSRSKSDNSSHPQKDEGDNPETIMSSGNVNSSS

SMILES: CC(C)Oc1cc(-c2nc(-c3cccc4c3CCC43CCN(C(C)(C)CO)C3)no2)ccc1C#N (centres unmarked) [Compound 1]
- Emax (% Activity relative to maximum control ligand): 110%
- EC50 (incubated at 37° C. for 90 to 180 minutes): 0.657 nM
